Values quoted from earlier work, collected in publication PMC9851200, “Multiparameter phenotypic screening for endogenous TFEB and TFE3 translocation identifies novel chemical series modulating lysosome function” (Autophagy, 2022).

Key:
Design in all cases: method as in original PKIS2 published data
[1] = molecular target: T1, kinases (KINOMEscan panel) (Homo sapiens, UniProt O14920); conditions: cited from earlier work
T1 sequence (O14920 1-756): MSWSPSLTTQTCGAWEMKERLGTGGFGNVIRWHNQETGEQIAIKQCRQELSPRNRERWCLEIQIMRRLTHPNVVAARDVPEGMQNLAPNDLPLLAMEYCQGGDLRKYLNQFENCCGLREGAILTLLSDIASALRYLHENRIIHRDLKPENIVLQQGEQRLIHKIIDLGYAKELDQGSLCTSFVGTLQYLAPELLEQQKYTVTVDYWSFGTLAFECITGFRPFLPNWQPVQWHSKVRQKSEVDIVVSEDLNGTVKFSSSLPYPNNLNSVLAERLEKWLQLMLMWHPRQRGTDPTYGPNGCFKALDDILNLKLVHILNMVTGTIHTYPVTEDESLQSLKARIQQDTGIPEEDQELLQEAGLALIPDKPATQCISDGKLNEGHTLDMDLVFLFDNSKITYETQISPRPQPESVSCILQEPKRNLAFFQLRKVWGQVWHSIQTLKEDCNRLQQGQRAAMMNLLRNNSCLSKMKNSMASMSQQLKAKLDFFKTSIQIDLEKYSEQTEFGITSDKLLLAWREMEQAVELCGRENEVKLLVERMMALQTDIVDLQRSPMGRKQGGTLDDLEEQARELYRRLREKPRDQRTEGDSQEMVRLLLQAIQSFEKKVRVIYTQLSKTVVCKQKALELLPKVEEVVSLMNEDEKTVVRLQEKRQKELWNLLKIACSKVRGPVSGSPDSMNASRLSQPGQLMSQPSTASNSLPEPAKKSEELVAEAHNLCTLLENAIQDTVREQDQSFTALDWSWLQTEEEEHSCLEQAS

[2] = molecular target: T2, kinases (KINOMEscan panel) (Homo sapiens, UniProt P20794); conditions: Published KINOMEscan; ref original PKIS2 published data; cited from earlier work
T2 sequence (P20794 1-623): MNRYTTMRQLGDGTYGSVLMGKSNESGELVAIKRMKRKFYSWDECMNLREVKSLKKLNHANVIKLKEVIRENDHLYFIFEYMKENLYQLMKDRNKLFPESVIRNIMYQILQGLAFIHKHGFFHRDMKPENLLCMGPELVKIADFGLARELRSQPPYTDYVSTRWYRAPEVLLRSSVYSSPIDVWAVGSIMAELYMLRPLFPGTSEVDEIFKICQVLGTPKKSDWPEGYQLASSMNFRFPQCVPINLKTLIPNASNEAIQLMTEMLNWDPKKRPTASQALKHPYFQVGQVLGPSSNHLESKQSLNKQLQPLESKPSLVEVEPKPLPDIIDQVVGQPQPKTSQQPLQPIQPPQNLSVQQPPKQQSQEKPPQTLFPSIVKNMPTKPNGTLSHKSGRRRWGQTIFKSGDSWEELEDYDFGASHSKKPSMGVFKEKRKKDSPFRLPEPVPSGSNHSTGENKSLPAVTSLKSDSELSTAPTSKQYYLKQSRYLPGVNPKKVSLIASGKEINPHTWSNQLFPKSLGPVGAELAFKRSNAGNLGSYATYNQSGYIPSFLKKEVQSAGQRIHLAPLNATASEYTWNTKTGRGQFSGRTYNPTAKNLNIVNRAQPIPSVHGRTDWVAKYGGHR

[3] = molecular target: kinases (KINOMEscan panel) (Homo sapiens, UniProt P29597); conditions: Published KINOMEscan, ref original PKIS2 published data, cited from earlier work
[4] = molecular target: kinases (KINOMEscan panel) (Homo sapiens, UniProt P42336); conditions: kinase PIK3CA; Published KINOMEscan; ref original PKIS2 published data; cited from earlier work
[5] = molecular target: kinases (KINOMEscan panel) (Homo sapiens, UniProt Q9H4A3); conditions: Published KINOMEscan; ref original PKIS2 published data; cited from earlier work
[6] = molecular target: T3, kinases (KINOMEscan panel) (Homo sapiens, UniProt Q9HBY8); conditions: Published KINOMEscan; ref original PKIS2 published data; cited from earlier work
T3 sequence (Q9HBY8 1-367): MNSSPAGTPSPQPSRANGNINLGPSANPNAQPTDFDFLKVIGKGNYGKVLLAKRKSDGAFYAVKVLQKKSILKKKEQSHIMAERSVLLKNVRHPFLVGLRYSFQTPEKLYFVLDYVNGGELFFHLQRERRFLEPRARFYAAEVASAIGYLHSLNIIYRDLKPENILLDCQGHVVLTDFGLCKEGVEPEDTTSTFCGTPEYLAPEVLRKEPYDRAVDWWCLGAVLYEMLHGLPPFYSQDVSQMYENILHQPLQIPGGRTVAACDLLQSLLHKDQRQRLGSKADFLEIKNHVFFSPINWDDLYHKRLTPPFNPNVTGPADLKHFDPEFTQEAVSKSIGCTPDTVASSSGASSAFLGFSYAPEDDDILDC

[7] = molecular target: T4, kinases (KINOMEscan panel) (Homo sapiens, UniProt Q9UQB9); conditions: AURKC; Published KINOMEscan; ref original PKIS2 published data; cited from earlier work
T4 sequence (Q9UQB9 1-309): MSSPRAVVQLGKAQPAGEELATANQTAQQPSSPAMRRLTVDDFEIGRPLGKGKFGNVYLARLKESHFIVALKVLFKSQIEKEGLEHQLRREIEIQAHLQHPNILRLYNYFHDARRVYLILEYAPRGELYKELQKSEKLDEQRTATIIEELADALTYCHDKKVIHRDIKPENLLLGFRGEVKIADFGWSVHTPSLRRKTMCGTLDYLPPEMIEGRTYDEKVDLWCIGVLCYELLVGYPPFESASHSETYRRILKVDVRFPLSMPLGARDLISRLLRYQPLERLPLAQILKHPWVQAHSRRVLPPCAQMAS

Sequence of kinases (KINOMEscan panel) (Homo sapiens, UniProt P29597) (P29597 whole entry): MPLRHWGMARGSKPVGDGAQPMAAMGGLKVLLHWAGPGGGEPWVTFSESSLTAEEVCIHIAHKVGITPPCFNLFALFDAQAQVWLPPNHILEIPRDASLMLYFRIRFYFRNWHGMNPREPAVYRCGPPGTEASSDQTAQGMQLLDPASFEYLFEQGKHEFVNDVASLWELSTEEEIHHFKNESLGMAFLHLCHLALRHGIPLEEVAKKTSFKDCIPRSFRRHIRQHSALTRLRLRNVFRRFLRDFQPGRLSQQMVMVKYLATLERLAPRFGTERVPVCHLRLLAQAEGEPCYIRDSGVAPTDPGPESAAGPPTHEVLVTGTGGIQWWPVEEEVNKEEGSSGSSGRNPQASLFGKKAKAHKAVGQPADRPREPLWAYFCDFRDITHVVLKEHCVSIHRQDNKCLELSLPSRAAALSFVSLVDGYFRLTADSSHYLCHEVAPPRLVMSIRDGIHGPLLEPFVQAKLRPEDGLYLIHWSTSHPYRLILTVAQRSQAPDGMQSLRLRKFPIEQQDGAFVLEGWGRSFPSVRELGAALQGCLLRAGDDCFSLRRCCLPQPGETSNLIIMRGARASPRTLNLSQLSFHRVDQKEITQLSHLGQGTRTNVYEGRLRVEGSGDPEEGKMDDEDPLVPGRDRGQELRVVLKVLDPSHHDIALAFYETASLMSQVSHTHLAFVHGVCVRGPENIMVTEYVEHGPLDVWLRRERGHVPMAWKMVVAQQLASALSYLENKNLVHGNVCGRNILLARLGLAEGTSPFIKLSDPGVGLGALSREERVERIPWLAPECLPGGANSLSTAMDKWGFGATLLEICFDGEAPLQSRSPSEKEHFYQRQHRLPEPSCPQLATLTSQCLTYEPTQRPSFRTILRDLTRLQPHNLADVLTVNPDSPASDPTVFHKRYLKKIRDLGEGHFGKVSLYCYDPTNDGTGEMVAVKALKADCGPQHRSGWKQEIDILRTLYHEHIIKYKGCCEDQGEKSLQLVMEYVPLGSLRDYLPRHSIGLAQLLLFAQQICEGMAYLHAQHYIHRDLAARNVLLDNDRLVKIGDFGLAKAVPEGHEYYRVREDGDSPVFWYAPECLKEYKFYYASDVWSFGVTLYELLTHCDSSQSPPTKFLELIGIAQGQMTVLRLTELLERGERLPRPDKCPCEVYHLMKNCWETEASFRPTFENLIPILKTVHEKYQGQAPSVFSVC
Sequence of kinases (KINOMEscan panel) (Homo sapiens, UniProt Q9H4A3) (Q9H4A3 whole entry): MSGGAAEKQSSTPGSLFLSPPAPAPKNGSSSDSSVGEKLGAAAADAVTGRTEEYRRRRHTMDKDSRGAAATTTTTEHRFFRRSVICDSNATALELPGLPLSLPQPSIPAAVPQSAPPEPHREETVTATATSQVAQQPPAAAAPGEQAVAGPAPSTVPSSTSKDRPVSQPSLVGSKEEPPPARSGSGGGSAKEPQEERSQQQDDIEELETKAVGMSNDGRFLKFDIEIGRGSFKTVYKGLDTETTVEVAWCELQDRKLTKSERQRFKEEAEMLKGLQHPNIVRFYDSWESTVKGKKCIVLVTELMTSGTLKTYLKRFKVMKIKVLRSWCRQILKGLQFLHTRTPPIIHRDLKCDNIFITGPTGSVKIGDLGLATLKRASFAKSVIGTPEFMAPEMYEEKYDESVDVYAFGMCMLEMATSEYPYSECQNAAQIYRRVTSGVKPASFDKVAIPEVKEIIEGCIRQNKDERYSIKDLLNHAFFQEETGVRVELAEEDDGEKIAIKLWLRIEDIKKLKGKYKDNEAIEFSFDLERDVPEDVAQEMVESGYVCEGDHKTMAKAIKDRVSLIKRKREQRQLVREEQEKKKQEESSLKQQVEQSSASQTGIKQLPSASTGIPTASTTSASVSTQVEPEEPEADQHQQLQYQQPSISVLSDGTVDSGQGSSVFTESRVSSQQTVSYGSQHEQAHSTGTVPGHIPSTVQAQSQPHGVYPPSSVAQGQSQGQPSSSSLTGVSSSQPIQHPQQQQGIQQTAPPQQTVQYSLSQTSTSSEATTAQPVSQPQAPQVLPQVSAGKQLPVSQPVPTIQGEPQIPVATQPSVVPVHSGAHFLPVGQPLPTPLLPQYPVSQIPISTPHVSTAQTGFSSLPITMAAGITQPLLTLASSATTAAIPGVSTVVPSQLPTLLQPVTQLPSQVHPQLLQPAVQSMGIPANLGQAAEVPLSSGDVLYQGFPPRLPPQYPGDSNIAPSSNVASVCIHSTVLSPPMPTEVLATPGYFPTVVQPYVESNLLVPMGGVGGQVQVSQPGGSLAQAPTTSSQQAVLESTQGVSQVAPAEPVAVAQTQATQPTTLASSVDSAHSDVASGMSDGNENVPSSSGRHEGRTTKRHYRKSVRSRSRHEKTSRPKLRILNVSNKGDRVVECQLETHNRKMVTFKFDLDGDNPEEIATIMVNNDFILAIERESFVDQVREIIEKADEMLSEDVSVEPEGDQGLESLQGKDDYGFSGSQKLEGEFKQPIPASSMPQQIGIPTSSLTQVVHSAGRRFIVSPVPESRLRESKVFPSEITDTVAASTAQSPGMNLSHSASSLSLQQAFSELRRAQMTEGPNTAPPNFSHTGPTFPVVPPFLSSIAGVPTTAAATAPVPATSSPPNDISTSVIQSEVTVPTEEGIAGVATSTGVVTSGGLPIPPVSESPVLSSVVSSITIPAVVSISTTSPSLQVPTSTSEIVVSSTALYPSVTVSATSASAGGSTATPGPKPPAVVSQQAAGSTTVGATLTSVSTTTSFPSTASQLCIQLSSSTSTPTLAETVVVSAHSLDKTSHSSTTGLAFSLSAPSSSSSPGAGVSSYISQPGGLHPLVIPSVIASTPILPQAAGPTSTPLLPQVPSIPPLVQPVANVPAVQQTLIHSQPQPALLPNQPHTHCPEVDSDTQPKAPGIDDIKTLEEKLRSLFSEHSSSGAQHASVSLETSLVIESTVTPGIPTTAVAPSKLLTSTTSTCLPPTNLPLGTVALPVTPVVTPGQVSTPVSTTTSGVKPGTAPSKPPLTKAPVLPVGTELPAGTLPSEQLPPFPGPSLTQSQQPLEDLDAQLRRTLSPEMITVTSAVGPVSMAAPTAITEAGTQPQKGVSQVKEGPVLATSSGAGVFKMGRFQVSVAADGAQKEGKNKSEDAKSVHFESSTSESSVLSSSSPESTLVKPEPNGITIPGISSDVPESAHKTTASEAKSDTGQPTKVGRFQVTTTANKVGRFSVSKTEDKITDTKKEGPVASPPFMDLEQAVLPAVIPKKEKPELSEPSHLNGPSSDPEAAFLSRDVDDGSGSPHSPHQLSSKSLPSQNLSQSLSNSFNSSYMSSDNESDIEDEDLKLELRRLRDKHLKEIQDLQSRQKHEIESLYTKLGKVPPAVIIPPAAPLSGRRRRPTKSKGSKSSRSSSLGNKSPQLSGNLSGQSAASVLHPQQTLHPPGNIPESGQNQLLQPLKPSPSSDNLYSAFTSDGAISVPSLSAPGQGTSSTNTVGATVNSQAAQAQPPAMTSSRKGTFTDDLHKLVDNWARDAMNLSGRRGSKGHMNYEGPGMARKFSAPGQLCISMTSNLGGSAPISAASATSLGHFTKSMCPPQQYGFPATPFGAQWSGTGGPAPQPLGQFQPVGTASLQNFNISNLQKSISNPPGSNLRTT
Sequence of kinases (KINOMEscan panel) (Homo sapiens, UniProt P42336) (P42336 whole entry): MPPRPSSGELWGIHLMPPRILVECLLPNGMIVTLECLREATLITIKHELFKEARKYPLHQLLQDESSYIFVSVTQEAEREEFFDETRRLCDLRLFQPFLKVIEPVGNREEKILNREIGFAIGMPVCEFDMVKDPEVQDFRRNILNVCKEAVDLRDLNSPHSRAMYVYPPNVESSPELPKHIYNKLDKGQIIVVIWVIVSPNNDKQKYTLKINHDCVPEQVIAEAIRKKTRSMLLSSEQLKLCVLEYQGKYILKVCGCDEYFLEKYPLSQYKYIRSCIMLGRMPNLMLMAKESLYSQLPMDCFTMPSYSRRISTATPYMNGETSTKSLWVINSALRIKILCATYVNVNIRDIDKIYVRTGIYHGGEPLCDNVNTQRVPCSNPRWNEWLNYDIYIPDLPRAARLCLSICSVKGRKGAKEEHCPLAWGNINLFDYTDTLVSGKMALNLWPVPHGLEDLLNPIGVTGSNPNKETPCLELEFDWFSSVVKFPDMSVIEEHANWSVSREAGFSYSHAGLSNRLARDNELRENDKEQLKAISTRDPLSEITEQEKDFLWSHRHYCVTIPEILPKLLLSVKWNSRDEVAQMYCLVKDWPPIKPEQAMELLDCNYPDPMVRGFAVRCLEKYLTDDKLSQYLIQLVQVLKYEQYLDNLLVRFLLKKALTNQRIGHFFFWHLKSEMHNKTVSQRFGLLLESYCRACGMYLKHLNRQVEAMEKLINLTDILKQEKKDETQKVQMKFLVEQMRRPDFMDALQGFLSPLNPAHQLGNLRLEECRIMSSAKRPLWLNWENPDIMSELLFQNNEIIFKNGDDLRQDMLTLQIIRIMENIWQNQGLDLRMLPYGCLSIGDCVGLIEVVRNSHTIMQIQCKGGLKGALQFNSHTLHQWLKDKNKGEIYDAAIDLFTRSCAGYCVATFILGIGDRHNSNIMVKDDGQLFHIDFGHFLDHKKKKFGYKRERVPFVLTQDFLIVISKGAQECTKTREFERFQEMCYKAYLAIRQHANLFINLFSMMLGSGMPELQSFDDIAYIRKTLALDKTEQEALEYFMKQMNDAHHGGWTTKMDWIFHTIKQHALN

In the case of `Cc1cccc(-c2nc(Nc3ccncc3)c3ccccc3n2)n1` [NK215], the “KINOMEscan IKBKB/IKK-beta” value [1] is given as 0, the “KINOMEscan MAK” value [2] is given as 0 and the “KINOMEscan TYK2(JH2domain-pseudokinase)” value ([3]; TYK2(JH2domain-pseudokinase)) is given as 40. The “KINOMEscan TYK2(JH1domain-catalytic)” value ([3]; kinase TYK2(JH1domain-catalytic)) was 8, the “KINOMEscan PIK3CA” value [4] was 0 and the “KINOMEscan WNK1” value [5] was 0. For the same compound, the “KINOMEscan SGK2” value [6] was 0 and the “KINOMEscan AURKC” value [7] was 0.
